Test results reported in US10508104B2, “6-hydroxy-5-(phenyl/heteroarylsulfonyl)pyrimidin-4(1H)-one as APJ agonists” (Bristol-Myers Squibb Company, priority 2016, dated 2019).

The compounds below were run against human APJ receptor (Homo sapiens (Human), UniProt P35414) (assay: Intracellular cAMP accumulation assay (APJ hcAMP, HTRF)). Settings: HEK293 cells stably expressing human APJ receptor; inhibition of forskolin-mediated cAMP production; read-out: Human APJ cAMP EC50 Potency range.
Type: cell-based
How it was run: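 HEK293 cells stably expressing human APJ, 5,000 per well, incubated 30 min at rt with compound, […] and 2 μM forskolin. cAMP measured by HTRF against a cAMP standard curve as inhibition of forskolin-driven production. EC50 from variable-slope sigmoidal fit.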

Sequence of human APJ receptor (P35414 whole entry): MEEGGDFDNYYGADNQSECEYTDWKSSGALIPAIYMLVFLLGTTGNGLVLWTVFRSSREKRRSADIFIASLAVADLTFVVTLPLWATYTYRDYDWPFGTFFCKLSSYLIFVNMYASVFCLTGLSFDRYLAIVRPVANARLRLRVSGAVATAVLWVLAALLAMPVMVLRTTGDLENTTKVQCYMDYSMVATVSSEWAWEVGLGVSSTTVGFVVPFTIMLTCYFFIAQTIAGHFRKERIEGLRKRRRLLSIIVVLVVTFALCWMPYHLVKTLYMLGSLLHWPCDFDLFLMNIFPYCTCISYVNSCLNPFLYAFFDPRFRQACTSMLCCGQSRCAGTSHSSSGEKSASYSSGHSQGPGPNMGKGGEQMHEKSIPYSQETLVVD

EC50 [nM]	Compound
0.01 to 10	CCCCc1nc(=O)c(S(=O)(=O)[C@H]2CC[C@@H](OCc3ccccc3)CC2)c(O)n1-c1c(OC)cccc1OC [Example 367, 2-butyl-1-(2,6-dimethoxyphenyl)-6-hydroxy-5-{[(1s,4s)-4-(benzyloxy)cyclohexyl]sulfonyl}-1,4-dihydropyrimidin-4-one]
0.01 to 10	COC[C@@H](c1cc(F)cc(F)c1)n1c(COC(C)C)nc(=O)c(S(=O)(=O)c2ccc(Br)cc2)c1O [Example 368, 5-(4-bromobenzenesulfonyl)-1-[(1R)-1-(3,5-difluorophenyl)-2-methoxyethyl]-6-hydroxy-2-[(propan-2-yloxy)methyl]-1,4-dihydropyrimidin-4-one]
0.01 to 10	CC[C@@H](c1cccc(C#N)c1)n1c(COC(C)C)nc(=O)c(S(=O)(=O)c2ccc(Br)cc2)c1O [Example 369, 3-[(1S)-1-[5-(4-bromobenzenesulfonyl)-6-hydroxy-4-oxo-2-[(propan-2-yloxy)methyl]-1,4-dihydropyrimidin-1-yl]propyl]benzonitrile]
0.01 to 10	CCOCc1nc(=O)c(S(=O)(=O)c2ccc(Br)cc2)c(O)n1[C@@H](COC)c1cc(F)cc(F)c1 [Example 370, 5-(4-bromobenzenesulfonyl)-1-[(1R)-1-(3,5-difluorophenyl)-2-methoxyethyl]-2-(ethoxymethyl)-6-hydroxy-1,4-dihydropyrimidin-4-one]
0.01 to 10	COC[C@@H](c1cccc(C#N)c1)n1c(COC(C)C)nc(=O)c(S(=O)(=O)c2ccc(Br)cc2)c1O [Example 371, 3-[(1R)-1-[5-(4-bromobenzenesulfonyl)-6-hydroxy-4-oxo-2-[(propan-2-yloxy)methyl]-1,4-dihydropyrimidin-1-yl]-2-methoxyethyl]benzonitrile]
0.01 to 10	CC(C)OCc1nc(=O)c(S(=O)(=O)c2ccc(Br)cc2)c(O)n1[C@H](c1cccc(C#N)c1)C1CC1 [Example 372, 3-[(S)-[5-(4-bromobenzenesulfonyl)-6-hydroxy-4-oxo-2-[(propan-2-yloxy)methyl]-1,4-dihydropyrimidin-1-yl](cyclopropyl)methyl] benzonitrile]
0.01 to 10	CCOCc1nc(=O)c(S(=O)(=O)c2ccc(-c3ccnc(F)c3C)c(F)c2)c(O)n1C(COC)c1cccc(F)c1 (centres unmarked) [Example 373, 2-(ethoxymethyl)-5-[3-fluoro-4-(2-fluoro-3-methylpyridin-4-yl)benzenesulfonyl]-1-[1-(3-fluorophenyl)-2-methoxyethyl]-6-hydroxy-1,4-dihydropyrimidin-4-one]
0.01 to 10	CCOCc1nc(=O)c(S(=O)(=O)c2ccc(-c3ccnc(F)c3C)c(F)c2)c(O)n1C(COC)c1cccc(F)c1 (centres unmarked) [Example 374, 2-(ethoxymethyl)-5-[3-fluoro-4-(2-fluoro-3-methylpyridin-4-yl)benzenesulfonyl]-1-[1-(3-fluorophenyl)-2-methoxyethyl]-6-hydroxy-1,4-dihydropyrimidin-4-one]
0.01 to 10	CCOCc1nc(=O)c(S(=O)(=O)c2ccc(-c3ccc(F)nc3C)c(F)c2)c(O)n1C(COC)c1cccc(F)c1 (centres unmarked) [Example 375, 2-(ethoxymethyl)-5-[3-fluoro-4-(6-fluoro-2-methylpyridin-3-yl)benzenesulfonyl]-1-[1-(3-fluorophenyl)-2-methoxyethyl]-6-hydroxy-1,4-dihydropyrimidin-4-one]
0.01 to 10	CCOCc1nc(=O)c(S(=O)(=O)c2ccc(-c3ccc(F)nc3C)c(F)c2)c(O)n1C(COC)c1cccc(F)c1 (centres unmarked) [Example 376, 2-(ethoxymethyl)-5-[3-fluoro-4-(6-fluoro-2-methylpyridin-3-yl)benzenesulfonyl]-1-[1-(3-fluorophenyl)-2-methoxyethyl]-6-hydroxy-1,4-dihydropyrimidin-4-one]
0.01 to 10	COC[C@@H](c1cc(F)cc(F)c1)n1c(COC(C)C)nc(=O)c(S(=O)(=O)c2ccc(-c3ccncc3C)cc2)c1O [Example 377, 1-[(1R)-1-(3,5-difluorophenyl)-2-methoxyethyl]-6-hydroxy-5-[4-(3-methylpyridin-4-yl)benzenesulfonyl]-2-[(propan-2-yloxy)methyl]-1,4-dihydropyrimidin-4-one]
0.01 to 10	COC[C@@H](c1cc(F)cc(F)c1)n1c(COC(C)C)nc(=O)c(S(=O)(=O)c2ccc(-c3ccnc(F)c3C)cc2)c1O [Example 378, 1-[(1R)-1-(3,5-difluorophenyl)-2-methoxyethyl]-5-[4-(2-fluoro-3-methylpyridin-4-yl)benzenesulfonyl]-6-hydroxy-2-[(propan-2-yloxy)methyl]-1,4-dihydropyrimidin-4-one]
0.01 to 10	COC[C@@H](c1cc(F)cc(F)c1)n1c(COC(C)C)nc(=O)c(S(=O)(=O)c2ccc(-c3cccnc3C)cc2)c1O [Example 379, 1-[(1R)-1-(3,5-difluorophenyl)-2-methoxyethyl]-6-hydroxy-5-[4-(2-methylpyridin-3-yl)benzenesulfonyl]-2-[(propan-2-yloxy)methyl]-1,4-dihydropyrimidin-4-one]
0.01 to 10	COC[C@@H](c1cc(F)cc(F)c1)n1c(COC(C)C)nc(=O)c(S(=O)(=O)c2ccc(-c3ccc(F)nc3C)cc2)c1O [Example 380, 1-[(1R)-1-(3,5-difluorophenyl)-2-methoxyethyl]-5-[4-(6-fluoro-2-methylpyridin-3-yl)benzenesulfonyl]-6-hydroxy-2-[(propan-2-yloxy)methyl]-1,4-dihydropyrimidin-4-one]
0.01 to 10	CC[C@@H](c1cccc(C#N)c1)n1c(COC(C)C)nc(=O)c(S(=O)(=O)c2ccc(-c3ccnc(F)c3C)cc2)c1O [Example 381, 3-[(1S)-1-{5-[4-(2-fluoro-3-methylpyridin-4-yl)benzenesulfonyl]-6-hydroxy-4-oxo-2-[(propan-2-yloxy)methyl]-1,4-dihydropyrimidin-1-yl}propyl]benzonitrile]
0.01 to 10	CC[C@@H](c1cccc(C#N)c1)n1c(COC(C)C)nc(=O)c(S(=O)(=O)c2ccc(-c3ccc(F)nc3C)cc2)c1O [Example 382, 3-[(1S)-1-{5-[4-(6-fluoro-2-methylpyridin-3-yl)benzenesulfonyl]-6-hydroxy-4-oxo-2-[(propan-2-yloxy)methyl]-1,4-dihydropyrimidin-1-yl}propyl]benzonitrile]
0.01 to 10	CC[C@@H](c1cccc(C#N)c1)n1c(COC(C)C)nc(=O)c(S(=O)(=O)c2ccc(-c3ccncc3C)cc2)c1O [Example 383, 3-[(1S)-1-{6-hydroxy-5-[4-(3-methylpyridin-4-yl)benzenesulfonyl]-4-oxo-2-[(propan-2-yloxy)methyl]-1,4-dihydropyrimidin-1-yl}propyl]benzonitrile]
0.01 to 10	CC[C@@H](c1cccc(C#N)c1)n1c(COC(C)C)nc(=O)c(S(=O)(=O)c2ccc(-c3cccnc3C)cc2)c1O [Example 384, 3-[(1S)-1-{6-hydroxy-5-[4-(2-methylpyridin-3-yl)benzenesulfonyl]-4-oxo-2-[(propan-2-yloxy)methyl]-1,4-dihydropyrimidin-1-yl}propyl]benzonitrile]
0.01 to 10	CCOCc1nc(=O)c(S(=O)(=O)c2ccc(-c3ccc(F)nc3C)cc2)c(O)n1[C@@H](COC)c1cc(F)cc(F)c1 [Example 385, 1-[(1R)-1-(3,5-difluorophenyl)-2-methoxyethyl]-2-(ethoxymethyl)-5-[4-(6-fluoro-2-methylpyridin-3-yl)benzenesulfonyl]-6-hydroxy-1,4-dihydropyrimidin-4-one]
0.01 to 10	CCOCc1nc(=O)c(S(=O)(=O)c2ccc(-c3cccnc3C)cc2)c(O)n1[C@@H](COC)c1cc(F)cc(F)c1 [Example 386, 1-[(1R)-1-(3,5-difluorophenyl)-2-methoxyethyl]-2-(ethoxymethyl)-6-hydroxy-5-[4-(2-methylpyridin-3-yl)benzenesulfonyl]-1,4-dihydropyrimidin-4-one]
0.01 to 10	CCOCc1nc(=O)c(S(=O)(=O)c2ccc(-c3ccncc3C)cc2)c(O)n1[C@@H](COC)c1cc(F)cc(F)c1 [Example 387, 1-[(1R)-1-(3,5-difluorophenyl)-2-methoxyethyl]-2-(ethoxymethyl)-6-hydroxy-5-[4-(3-methylpyridin-4-yl)benzenesulfonyl]-1,4-dihydropyrimidin-4-one]
0.01 to 10	CCOCc1nc(=O)c(S(=O)(=O)c2ccc(-c3ccnc(F)c3C)cc2)c(O)n1[C@@H](COC)c1cc(F)cc(F)c1 [Example 388, 1-[(1R)-1-(3,5-difluorophenyl)-2-methoxyethyl]-2-(ethoxymethyl)-5-[4-(2-fluoro-3-methylpyridin-4-yl)benzenesulfonyl]-6-hydroxy-1,4-dihydropyrimidin-4-one]
0.01 to 10	COC[C@@H](c1cccc(C#N)c1)n1c(COC(C)C)nc(=O)c(S(=O)(=O)c2ccc(-c3ccc(F)nc3C)cc2)c1O [Example 389, 3-[(1R)-1-{5-[4-(6-fluoro-2-methylpyridin-3-yl)benzenesulfonyl]-6-hydroxy-4-oxo-2-[(propan-2-yloxy)methyl]-1,4-dihydropyrimidin-1-yl}-2-methoxyethyl]benzonitrile]
0.01 to 10	COC[C@@H](c1cccc(C#N)c1)n1c(COC(C)C)nc(=O)c(S(=O)(=O)c2ccc(-c3cccnc3C)cc2)c1O [Example 390, 3-[(1R)-1-{6-hydroxy-5-[4-(2-methylpyridin-3-yl)benzenesulfonyl]-4-oxo-2-[(propan-2-yloxy)methyl]-1,4-dihydropyrimidin-1-yl}-2-methoxyethyl]benzonitrile]
0.01 to 10	COC[C@@H](c1cc(F)cc(F)c1)n1c(COC(C)C)nc(=O)c(S(=O)(=O)c2ccc(-c3cncc(C#N)c3)cc2)c1O [Example 391, 5-[4-({1-[(1R)-1-(3,5-difluorophenyl)-2-methoxyethyl]-6-hydroxy-4-oxo-2-[(propan-2-yloxy)methyl]-1,4-dihydropyrimidin-5-yl}sulfonyl)phenyl] pyridine-3-carbonitrile]
0.01 to 10	COC[C@@H](c1cc(F)cc(F)c1)n1c(COC(C)C)nc(=O)c(S(=O)(=O)c2ccc(-c3ccccc3C(N)=O)cc2)c1O [Example 392, 4′-({1-[(1R)-1-(3,5-difluorophenyl)-2-methoxyethyl]-6-hydroxy-4-oxo-2-[(propan-2-yloxy)methyl]-1,4-dihydropyrimidin-5-yl}sulfonyl)-[1,1′-biphenyl]-2-carboxamide]
